US20230151025A1, “SUBSTITUTED THIAZOLOPYRIDINES, SALTS THEREOF AND THEIR USE AS HERBICIDALLY ACTIVE SUBSTANCES” (Bayer Aktiengesellschaft, priority 2020, published 2023)

Columns and labels:
Format in all cases: in vivo
[1] = test system: Abutilon theophrasti (ABUTH); experiment: Herbicidal pre-emergence action (A), 1280 g/ha; conditions: visual grading after ca. 3 weeks vs untreated controls, 100% = plants have died off, 0% = as control plants
Summary of the method: (§1)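 Seeds were sown in sandy loam pots (one mono- and one dicot weed per pot) and covered with soil; WP or EC formulations were applied to the soil surface as aqueous suspension/emulsion with 0.5% additive at 600 l water/ha. Damage was scored visually after ca. 3 weeks versus untreated controls (0% = control, 100% = dead).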

[2] = test system: Alopecurus myosuroides (ALOMY); experiment: Herbicidal pre-emergence action (A), 1280 g/ha; conditions: visual grading after ca. 3 weeks vs untreated controls, 100% = plants have died off, 0% = as control plants
Summary of the method: as §1

[3] = test system: Amaranthus retroflexus (AMARE); experiment: Herbicidal pre-emergence action (A), 1280 g/ha; conditions: visual grading after ca. 3 weeks vs untreated controls
Summary of the method: as §1

[4] = test system: Digitaria sanguinalis (DIGSA); experiment: Herbicidal pre-emergence action (A), 1280 g/ha; conditions: visual grading after ca. 3 weeks vs untreated controls, 100% = plants have died off, 0% = as control plants
Summary of the method: as §1

[5] = test system: Echinochloa crus-galli (ECHCG); experiment: Herbicidal pre-emergence action (A), 1280 g/ha; conditions: visual grading after ca. 3 weeks vs untreated controls, 100% = plants have died off, 0% = as control plants
Summary of the method: as §1

[6] = test system: Kochia scoparia (KCHSC; Bassia scoparia); experiment: Herbicidal pre-emergence action (A), 1280 g/ha; conditions: visual grading after ca. 3 weeks vs untreated controls
Summary of the method: as §1

[7] = test system: Lolium rigidum (LOLRI); experiment: Herbicidal pre-emergence action (A), 1280 g/ha; conditions: visual grading after ca. 3 weeks vs untreated controls, 100% = plants have died off, 0% = as control plants
Summary of the method: as §1

[8] = test system: Matricaria inodora (MATIN); experiment: Herbicidal pre-emergence action (A), 1280 g/ha; conditions: visual grading after ca. 3 weeks vs untreated controls
Summary of the method: as §1

[9] = test system: Poa annua (POAAN); experiment: Herbicidal pre-emergence action (A), 1280 g/ha; conditions: visual grading after ca. 3 weeks vs untreated controls, 100% = plants have died off, 0% = as control plants
Summary of the method: as §1

[10] = test system: Setaria viridis (SETVI); experiment: Herbicidal pre-emergence action (A), 1280 g/ha; conditions: visual grading after ca. 3 weeks vs untreated controls
Summary of the method: as §1

[11] = test system: Stellaria media (STEME); experiment: Herbicidal pre-emergence action (A), 1280 g/ha; conditions: visual grading after ca. 3 weeks vs untreated controls
Summary of the method: as §1

[12] = test system: Veronica persica (VERPE); experiment: Herbicidal pre-emergence action (A), 1280 g/ha; conditions: visual grading after ca. 3 weeks vs untreated controls
Summary of the method: as §1

[13] = test system: Abutilon theophrasti (ABUTH); experiment: Herbicidal post-emergence action (B), 1280 g/ha; conditions: rated visually after about 3 weeks vs untreated controls
Summary of the method: (§2)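 Post-emergence spray, one-leaf stage; WP/EC formulation, aqueous, 0.5% additive, 600 L/ha water. Sandy loam, greenhouse, doubly sown pots. Visual % rating vs untreated control at ~3 weeks (100% = dead).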

[14] = test system: Alopecurus myosuroides (ALOMY); experiment: Herbicidal post-emergence action (B), 1280 g/ha; conditions: rated visually after about 3 weeks vs untreated controls
Summary of the method: as §2

[15] = test system: Amaranthus retroflexus (AMARE); experiment: Herbicidal post-emergence action (B), 1280 g/ha; conditions: rated visually after about 3 weeks vs untreated controls
Summary of the method: as §2

[16] = test system: Digitaria sanguinalis (DIGSA); experiment: Herbicidal post-emergence action (B), 1280 g/ha; conditions: rated visually after about 3 weeks vs untreated controls
Summary of the method: as §2

[17] = test system: Echinochloa crus-galli (ECHCG); experiment: Herbicidal post-emergence action (B), 1280 g/ha; conditions: rated visually after about 3 weeks vs untreated controls
Summary of the method: as §2

[18] = test system: Kochia scoparia (KCHSC; Bassia scoparia); experiment: Herbicidal post-emergence action (B), 1280 g/ha
Summary of the method: as §2

[19] = test system: Lolium rigidum (LOLRI); experiment: Herbicidal post-emergence action (B), 1280 g/ha; conditions: one-leaf stage, rated after about 3 weeks vs untreated controls, 100% activity = the plants have died, 0% = like control plants
Summary of the method: as §2

[20] = test system: Poa annua (POAAN); experiment: Herbicidal post-emergence action (B), 1280 g/ha; conditions: rated visually after about 3 weeks vs untreated controls
Summary of the method: as §2

[21] = test system: Setaria viridis (SETVI); experiment: Herbicidal post-emergence action (B), 1280 g/ha; conditions: rated visually after about 3 weeks vs untreated controls
Summary of the method: as §2

[22] = test system: Stellaria media (STEME); experiment: Herbicidal post-emergence action (B), 1280 g/ha
Summary of the method: as §2

[23] = test system: Veronica persica (VERPE); experiment: Herbicidal post-emergence action (B), 1280 g/ha
Summary of the method: as §2

[24] = test system: Lolium rigidum (LOLRI); experiment: Herbicidal pre-emergence action (C), 320 g/ha; conditions: ca. 3 weeks
Summary of the method: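 Greenhouse pre-emergence trial with compounds sprayed onto soil above sown seeds in sandy loam (aqueous WP or EC, 0.5% additive, 600 l water/ha); effect scored by eye at roughly 3 weeks as percent damage versus controls.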

[25] = test system: Digitaria sanguinalis (DIGSA); experiment: Herbicidal pre-emergence action (C), 320 g/ha; conditions: ca. 3 weeks
Summary of the method: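 Weed and crop seeds sown in sandy loam; WP or EC formulations applied pre-emergence to the soil surface as aqueous suspension/emulsion with 0.5% additive at 600 l water/ha. Greenhouse-grown under optimum conditions; damage visually scored after ca. 3 weeks versus untreated controls (0% = as control, 100% = plants dead).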

Cc1cc2scnc2nc1-c1ccccc1 [Example I-041]
ABUTH, herbicidal effect in percent (%) [1]: 90%
ALOMY, herbicidal effect in percent (%) [2]: 100%
herbicidal effect AMARE [3]: 100%
DIGSA, herbicidal effect in percent (%) [4]: 100%
ECHCG, herbicidal effect in percent (%) [5]: 100%
herbicidal effect KCHSC [6]: 100%
LOLRI, herbicidal effect in percent (%) [7]: 100%
herbicidal effect MATIN [8]: 100%
POAAN, herbicidal effect in percent (%) [9]: 100%
herbicidal effect SETVI [10]: 100%
herbicidal effect STEME [11]: 100%
herbicidal effect VERPE [12]: 100%
herbicidal activity ABUTH [13]: 100%
herbicidal activity ALOMY [14]: 100%
herbicidal activity AMARE [15]: 100%
herbicidal activity DIGSA [16]: 100%
herbicidal activity ECHCG [17]: 100%
herbicidal effect KCHSC [18]: 100%
LOLRI, activity rated visually (%) [19]: 100%
herbicidal activity POAAN [20]: 100%
herbicidal activity SETVI [21]: 100%
herbicidal effect STEME [22]: 100%
herbicidal effect VERPE [23]: 100%
herbicidal effect LOLRI [24]: 100%
herbicidal effect DIGSA [25]: 100%

CCc1cc2scnc2nc1-c1ccccc1C [Example I-093]
ABUTH, herbicidal effect in percent (%) [1]: 90%
ALOMY, herbicidal effect in percent (%) [2]: 100%
herbicidal effect AMARE [3]: 90%
DIGSA, herbicidal effect in percent (%) [4]: 100%
ECHCG, herbicidal effect in percent (%) [5]: 90%
herbicidal effect KCHSC [6]: 100%
LOLRI, herbicidal effect in percent (%) [7]: 100%
herbicidal effect MATIN [8]: 100%
POAAN, herbicidal effect in percent (%) [9]: 100%
herbicidal effect SETVI [10]: 100%
herbicidal effect STEME [11]: 100%
herbicidal effect VERPE [12]: 100%
herbicidal activity ABUTH [13]: 100%
herbicidal activity ALOMY [14]: 100%
herbicidal activity AMARE [15]: 100%
herbicidal activity DIGSA [16]: 100%
herbicidal activity ECHCG [17]: 100%
herbicidal effect KCHSC [18]: 100%
LOLRI, activity rated visually (%) [19]: 100%
herbicidal activity POAAN [20]: 100%
herbicidal activity SETVI [21]: 100%
herbicidal effect STEME [22]: 100%
herbicidal effect VERPE [23]: 100%
herbicidal effect LOLRI [24]: 100%
herbicidal effect DIGSA [25]: 100%

Cc1cc2scnc2nc1-c1sccc1Cl [Example I-137]
ABUTH, herbicidal effect in percent (%) [1]: 100%
ALOMY, herbicidal effect in percent (%) [2]: 100%
herbicidal effect AMARE [3]: 100%
DIGSA, herbicidal effect in percent (%) [4]: 100%
ECHCG, herbicidal effect in percent (%) [5]: 100%
herbicidal effect KCHSC [6]: 100%
LOLRI, herbicidal effect in percent (%) [7]: 100%
herbicidal effect MATIN [8]: 90%
POAAN, herbicidal effect in percent (%) [9]: 100%
herbicidal effect SETVI [10]: 100%
herbicidal effect STEME [11]: 100%
herbicidal effect VERPE [12]: 100%
herbicidal activity ABUTH [13]: 90%
herbicidal activity ALOMY [14]: 100%
herbicidal activity AMARE [15]: 100%
herbicidal activity DIGSA [16]: 100%
herbicidal activity ECHCG [17]: 100%
herbicidal effect KCHSC [18]: 90%
LOLRI, activity rated visually (%) [19]: 90%
herbicidal activity POAAN [20]: 100%
herbicidal activity SETVI [21]: 100%
herbicidal effect STEME [22]: 100%
herbicidal effect VERPE [23]: 100%
herbicidal effect LOLRI [24]: 100%
herbicidal effect DIGSA [25]: 100%

Fc1ccccc1-c1nc2ncsc2cc1Cl [Example I-017]
ABUTH, herbicidal effect in percent (%) [1]: 90%
ALOMY, herbicidal effect in percent (%) [2]: 100%
herbicidal effect AMARE [3]: 100%
DIGSA, herbicidal effect in percent (%) [4]: 100%
ECHCG, herbicidal effect in percent (%) [5]: 100%
herbicidal effect KCHSC [6]: 100%
LOLRI, herbicidal effect in percent (%) [7]: 100%
herbicidal effect MATIN [8]: 100%
POAAN, herbicidal effect in percent (%) [9]: 100%
herbicidal effect SETVI [10]: 100%
herbicidal effect STEME [11]: 100%
herbicidal effect VERPE [12]: 90%
herbicidal activity ABUTH [13]: 90%
herbicidal activity ALOMY [14]: 100%
herbicidal activity AMARE [15]: 90%
herbicidal activity DIGSA [16]: 100%
herbicidal activity ECHCG [17]: 100%
herbicidal effect KCHSC [18]: 90%
LOLRI, activity rated visually (%) [19]: 100%
herbicidal activity POAAN [20]: 100%
herbicidal activity SETVI [21]: 100%
herbicidal effect STEME [22]: 100%
herbicidal effect VERPE [23]: 90%
herbicidal effect LOLRI [24]: 100%
herbicidal effect DIGSA [25]: 100%

CCc1cc2scnc2nc1-c1ccccc1F [Example I-023]
ABUTH, herbicidal effect in percent (%) [1]: 90%
ALOMY, herbicidal effect in percent (%) [2]: 100%
herbicidal effect AMARE [3]: 100%
DIGSA, herbicidal effect in percent (%) [4]: 100%
ECHCG, herbicidal effect in percent (%) [5]: 100%
herbicidal effect KCHSC [6]: 100%
LOLRI, herbicidal effect in percent (%) [7]: 100%
herbicidal effect MATIN [8]: 100%
POAAN, herbicidal effect in percent (%) [9]: 100%
herbicidal effect SETVI [10]: 100%
herbicidal effect STEME [11]: 90%
herbicidal effect VERPE [12]: 100%
herbicidal activity ABUTH [13]: 100%
herbicidal activity ALOMY [14]: 100%
herbicidal activity AMARE [15]: 100%
herbicidal activity DIGSA [16]: 100%
herbicidal activity ECHCG [17]: 100%
herbicidal effect KCHSC [18]: 90%
LOLRI, activity rated visually (%) [19]: 100%
herbicidal activity POAAN [20]: 100%
herbicidal activity SETVI [21]: 100%
herbicidal effect STEME [22]: 100%
herbicidal effect VERPE [23]: 90%
herbicidal effect LOLRI [24]: 100%
herbicidal effect DIGSA [25]: 100%
